“And” between values parts separate entries of the source, which are not always exact repeats. Identical values can stand only once.
Experiments:
Format in all cases: cell-based
[1] = system: Staphylococcus aureus; experiment: Suppression of metabolism of 14-methylhexadecanoic acid on cotton fabric; conditions: agent 250 μg/fabric g
Method: A methanol solution in which 14-methylhexadecanoic acid (SIGMA-ALDRICH) was dissolved was added dropwise to 3 cm×3 cm pieces of sterilized plain-weave cotton fabric to make it adhered to the fabric. The adhesion amount of 14-methylhexadecanoic acid was set to 10 μg per piece of the plain-weave cotton fabric (100 μg/fabric g).
Further, a methanol solution in which each metabolism controlling agent was dissolved was prepared and added dropwise to the fabric to which 14-methylhexadecanoic acid adhered, and it was thereafter dried for an hour. This fabric was placed in a sterilized screw tube bottle No. 3 (Maruemu Corporation) and 100 μl of the bacterial suspension was inoculated thereto, and culture was carried out under 37° C.; conditions for 21 hours.
(§1) 3 ml of methanol was added to the screw tube bottle after culture, and extraction was carried out under ultrasonic irradiation for 30 minutes (20° C.). The extraction liquid was mixed with a (trimethylsilyl)diazomethane hexane solution (FUJIFILM Wako Pure Chemical Corporation) at 9:1 (volume ratio) and left overnight under room temperature and dark place conditions. After that, 14-methylhexadecanoic acid remaining on the fabric was quantified by GC. The quantification conditions for GC are as follows. • GC: Agilent 7890A • GC column: Agilent DB-1 30 m×250 μm×0.25 μm • Temperature rise condition: 50° C. (held for 3 minutes)-(10° C./min)-300° C. (held for 5 minutes) • Sample injection volume: 1 μl • Split ratio: 1:12 • Detector: FID
The residual amount of 14-methylhexadecanoic acid after culture on the fabric to which the metabolism controlling agent was added was quantified, and the ratio of the residual amount to that of 14-methylhexadecanoic acid in the case of adding no metabolism controlling agent (control) was calculated as a metabolism suppression rate (%). The higher a numerical value thereof is, the more the metabolism is suppressed. Note that the metabolism suppression rate was determined by the following formula:
Metabolism suppression rate(%)=[1−(100−A)/(100−B)]×100 • A: residual amount of 14-methylhexadecanoic acid of example or comparative example (μg/fabric g) • B: residual amount of 14-methylhexadecanoic acid of control (μg/fabric g)
(§2) The metabolism of 14-methylhexadecanoic acid by bacteria of the genus Staphylococcus (Staphylococcus aureus) was tested in the same manner as in example 1.
(§3) In this example, Staphylococcus aureus (strain isolated from clothing) was used as a microorganism.
(§4) Further, in this example, a bacterial suspension of 10^7 (CFU/ml) prepared by using an NB liquid medium diluted to 1/10 with ion exchange water was used as a bacterial suspension.

[2] = system: Staphylococcus aureus; experiment: Measurement of viable bacterial count on fabric
Method: (§5) After culture on fabric prepared in the same manner as in the above (1), 9 mL of an LP diluent (manufactured by NIHON PHARMACEUTICAL CO., LTD.) was added, and the extraction of the bacteria was carried out under ultrasound for 10 minutes. The extraction liquid was poured and mixed to an SCD-LP agar medium (NIHON PHARMACEUTICAL CO., LTD.), and culture was thereafter carried out at 37° C.; for a day. The number of colonies obtained on each piece of the fabric was counted, and a common logarithm value thereof was measured as the viable bacterial count. […] In addition, the […], the more the viable bacterial count of the microorganism is maintained.
as §2, §3, §4
(§6) Note that, in this example, C12OH (1-dodecanol) was used as the metabolism controlling agent.

[3] = system: Escherichia coli (NBRC3972); experiment: Measurement of viable bacterial count on fabric
Method: as §5
The metabolism of 14-methylhexadecanoic acid by bacteria of the genus Escherichia (Escherichia coli) was tested in the same manner as in example 1.
In this example, Escherichia coli (NBRC3972) was used as a microorganism.
Further, in this example, a bacterial suspension of 10^6 (CFU/ml) prepared by using an NB liquid medium diluted to 1/10 with ion exchange water was used as a bacterial suspension.
as §6

[4] = system: Moraxella osloensis; experiment: Examination example: suppression of metabolism of 14-methylhexadecanoic acid, components (a) and (b)/(b′); conditions: single agent 100 μg/fabric g
Method: The suppression of metabolism of 14-methylhexadecanoic acid by bacteria of the genus Moraxella and the suppression of a metabolite therefrom were tested in the following manner.
Moraxella osloensis (strain isolated from clothing) was precultured on an SCD-LP agar medium (NIHON PHARMACEUTICAL CO., LTD.) at 37° C.; for 24 hours, and a bacterial suspension of 10^6 (CFU/ml) was prepared by using an NB liquid medium (Difco) diluted to 1/20 with ion exchange water.
A methanol solution in which 14-methylhexadecanoic acid (SIGMA-ALDRICH) was dissolved was added dropwise to 3 cm×3 cm pieces of sterilized plain-weave cotton fabric to make it adhered to the fabric. The adhesion amount of 14-methylhexadecanoic acid was set to 10 μg per piece of the plain-weave cotton fabric (100 μg/fabric g). Further, a methanol solution in which component (a) was dissolved, and then, a methanol solution in which component (b) or (b′) was dissolved were added dropwise to the fabric to which 14-methylhexadecanoic acid adhered, and it was thereafter dried for an hour. This fabric was placed in a sterilized screw tube bottle No. 3 (Maruemu Corporation) and 100 μl of the bacterial suspension was inoculated thereto, and culture was carried out under 37° C.; conditions for 21 hours.
as §1, with “6890N” for “7890A”
The residual amount of 14-methylhexadecanoic acid after culture on the fabric to which each metabolism controlling agent was added was quantified, and the ratio of the residual amount to that of 14-methylhexadecanoic acid in the case of adding no metabolism controlling agent (control) was calculated as a metabolism suppression rate (%). The higher a numerical value thereof is, the more the metabolism is suppressed. Note that the metabolism suppression rate was determined by the following formula:
Metabolism suppression rate(%)=[1−(100−A)/(100−B)]×100 • A: residual amount of 14-methylhexadecanoic acid of reference or examination example (μg/fabric g) • B: residual amount of 14-methylhexadecanoic acid of control (μg/fabric g)
A control is an example in which none of component (a), (b) or (b′) is added, and references 1-1, 2-1, 3-1 and 4-1 qualify as this (the same applies hereinafter). In these controls, the metabolism suppression rate is 0′.

CCCCCCCCCCCCO [Example C12OH, 1-dodecanol]
Metabolism suppression rate (%) [1]: 75% | Bacterial count (Log (cfu/fabric cm^2)) ([2]; agent 100 μg/fabric g): 6.4 Log (cfu/fabric cm^2) | Bacterial count (Log (cfu/fabric cm^2)) ([2]; agent 500 μg/fabric g): 6.2 Log (cfu/fabric cm^2) | Bacterial count (Log (cfu/fabric cm^2)) ([3]; agent 500 μg/fabric g): 6.3 Log (cfu/fabric cm^2) | Bacterial count (Log (cfu/fabric cm^2)) ([3]; agent 1000 μg/fabric g): 6.3 Log (cfu/fabric cm^2) and 6.4 Log (cfu/fabric cm^2) | Bacterial count (Log (cfu/fabric cm^2)) ([3]; agent 2000 μg/fabric g): 6.3 Log (cfu/fabric cm^2) | Bacterial count (Log (cfu/fabric cm^2)) ([3]; agent 3000 μg/fabric g): 6.3 Log (cfu/fabric cm^2) | Metabolism of branched fatty acid: Residual amount (μg/fabric g) ([4]; 14-methylhexadecanoic acid): 59 μg/fabric g | Metabolism of branched fatty acid: Metabolism suppression rate (%) [4]: 33%
